Among the data in the METLIN SMRT retention time set (Domingo-Almenara et al. 2019) are RP-LC retention time values, retold here.

The structures appear in SMILES notation.

A short description of this data set: gradient 5% acetonitrile 3 min, to 50% in 2 min, to 85% in 15 min, held 3 min, 100 µL/min. The following applies: column: Zorbax Extend-C18 2.1 x 50 mm; eluents: water / acetonitrile, 0.1% formic acid. An outline of the steps:
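Retention times come from adduct peaks that were picked computationally and then checked by hand. The standards, pure and pooled in mixtures of ~100 molecules, were run on a Zorbax Extend-C18 column (2.1 × 50 mm, 1.8 μm) at 100 μL/min with water and acetonitrile, each with 0.1% formic acid. Detection was by quadrupole time-of-flight mass spectrometry in positive and negative ionization mode, with a dead volume of 40 μL and a dwell volume of 900 μL.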
Compound `OC1(c2ccccn2)CCOC2(CCN(Cc3cccc(Cl)c3F)CC2)C1` (stereo not given) registered an RP-LC retention time of 576 s. The figure for `CCn1cc(C)c(C(=O)O)c1CC(=O)Nc1ccc(Cl)cc1` is 1010 s; for `CCOC(=O)C1CCN([C@H]2CS(=O)(=O)C[C@@H]2S(=O)(=O)c2ccc(C)cc2)CC1` it is 875 s; for `CC(C)c1nnc(-c2ccc(S(=O)(=O)N3CCN(C4CCCCC4)CC3)o2)o1` it is 644 s. For the compound `COCC(=O)Nc1ccc2c(c1)CCC(=O)N2C`, the RP-LC retention time came out at 613 s. The compound `O=C(c1ccc2nsnc2c1)N1CCN(S(=O)(=O)C2CC2)CC1` came in with an RP-LC retention time of 657 s. Take `CC1CCc2[nH]nc(C(=O)NC3CC3)c2C1` (stereo not given): the RP-LC retention time came to 683 s. In turn, `Cc1nc(-c2ccccc2)sc1C(=O)N1CCCC1` gave an RP-LC retention time of 824 s. `Nc1ccc(S(=O)(=O)N2CCCCC2c2cccnc2)cc1` (stereo not given) had an RP-LC retention time of 555 s. In turn, `CCOc1ccc(CN2C[C@@H]3C(=O)N(CCCN4CCCC4=O)C(=O)[C@@H]3C2)cc1` registered an RP-LC retention time of 610 s. `O=C(NCc1ccc(F)cc1)C1CCCN(S(=O)(=O)c2c[nH]c(C(=O)N3CCCCCC3)c2)C1` (stereo not given): the RP-LC retention time stood at 838 s. As for `O=S(=O)(/C=C/c1ccccc1)NCC1CCN(Cc2ccsc2)CC1`, the figure is 586 s; as for `COc1ccc(-c2nc(C3CC(=O)N(c4ccc(C)cc4)C3)no2)cn1` (stereo not given), 946 s. With `Cc1cccc(C2=NC3(CCN(C(=O)Nc4ccc5c(c4)OCO5)CC3)NC2=O)c1`, the RP-LC retention time was 790 s. As for `Cc1noc(-c2ccnc(-n3cnc(C(=O)NC(C)c4ccccc4)c3)c2)n1` (stereo not given), the figure is 867 s. In turn, `CNC(=O)c1cc(N(C)C)nc2c(C)cccc12` displayed an RP-LC retention time of 557 s. `CC(C)C(=O)Nc1cccn2nc(C(C)C)nc12` showed an RP-LC retention time of 780 s.

Compound `Cc1ccc(-c2nocc2CCC(=O)NCc2ccc3c(c2)OCO3)cc1` had an RP-LC retention time of 816 s.

`CCc1nc2ccccc2c(=O)n1Cc1noc(-c2cncc(Br)c2)n1` showed an RP-LC retention time of 896 s.

Consider `Cc1ccc(C)c(N2CCN(c3ccnc(SCC(=O)Nc4cccc(Cl)c4C)n3)CC2)c1`, for which the RP-LC retention time worked out at 1020 s.

In the case of `CCCn1cc(CCNC(=O)c2c(F)cccc2Cl)c2cccnc21`, the RP-LC retention time amounted to 764 s. For the compound `O=C(O)CCc1csc(NC(=O)Nc2ccc(Cl)cc2)n1`, the RP-LC retention time is 717 s.

`CCCN1C(=O)COc2ccc(-c3noc(-c4cccc(N(C)C)c4)n3)cc21` came in with an RP-LC retention time of 1300 s. As for `O=C(NCCc1csc(C2CCN(C(=O)C3CCCCC3)CC2)n1)C1CC1`, the RP-LC retention time was found to be 734 s. The figure for `Cc1cc2c(=O)n(CC(=O)N3CCCc4ccccc43)c3cccnc3n2n1` is 767 s.

Compound `O=C(Nc1cc(-c2ccccn2)no1)c1ccc(Cl)cc1` came in with an RP-LC retention time of 864 s. Turning to `COc1cc(C(=O)N2CCC3(CC2)NC(=O)c2ccc(Cl)cc2N3)cc(OC)c1OC`, the RP-LC retention time was found to be 721 s.

For the compound `CCc1noc(-c2cccnc2N2CCCN(Cc3ccc(F)cc3Cl)CC2)n1`, the RP-LC retention time stood at 700 s. As for `Cc1ccc(Cl)cc1NC(=O)CC1COc2ccccc2NC1=O` (stereo not given), the figure is 767 s; as for `CCn1ccc2sc(C)c(C(=O)NCc3cc(C)ccc3C)c2c1=O`, 959 s; as for `CCN1C(=O)Cc2cc(C(=O)N3CCN(C4CCCCC4)CC3)ccc21`, 583 s. The figure for `COCCc1noc(C2Cc3ccccc3N2C(=O)NCC(C)C)n1` (stereo not given) is 859 s; for `CN(C)CCN(Cc1ccco1)C(=O)Cn1nc(Cc2ccncc2)c2ccccc2c1=O` it is 548 s; for `CC1CC(=O)N(CC(=O)Nc2ccc(Cl)cc2)c2ccccc2S1(=O)=O` (stereo not given) it is 843 s. Turning to `Cc1ccc(CNC(=O)Cn2c3ccccc3c3cnn(C)c(=O)c32)o1`, the RP-LC retention time stood at 925 s. Regarding `COc1ccccc1-c1nc(C2CCN(C(=O)C3COc4ccccc4O3)CC2)no1` (stereo not given), the RP-LC retention time came to 962 s. The figure for `Cc1nn(-c2ccc(Cl)cc2)c(C)c1S(=O)(=O)N1CCN(c2ccccn2)CC1` is 747 s; for `COc1ccc(-c2csc(NC(=O)CSc3nc4c(cc3C#N)CCCC4)n2)cc1` it is 1180 s. The figure for `COc1ccc(CNC(=O)C2(c3ccc(NC(C)=O)cc3)CCC2)cc1` is 728 s.

`CC12CC(c3ccccc3O1)C(C(=O)N1CCCCC1)C(=O)N2` (stereo not given) registered an RP-LC retention time of 726 s. The figure for `NC(=O)COc1cc(-c2ccccc2)nc2ccc(NC(=O)C3CC3)cc12` is 610 s; for `CCOc1ccc(NC(=O)Nc2nccn(-c3cccc(Cl)c3)c2=O)cc1` it is 1000 s; for `COc1ccc(CCc2nc3nccc(-c4cccc(OC)c4)n3n2)cc1` it is 879 s. As for `O=C(NCCc1csc(-c2cccs2)n1)C1CCN(S(=O)(=O)c2ccccc2)CC1`, the figure is 889 s. `COc1ccc(-c2noc(C3CCCN3C(=O)Nc3ccc(OC)c(OC)c3)n2)cc1` (stereo not given): the RP-LC retention time came to 952 s. As for `CCOc1cccc(-c2noc(Cn3c(=O)n(Cc4ccc(F)cc4)c(=O)c4sccc43)n2)c1`, the figure is 1210 s; as for `CCc1ccc(S(=O)(=O)N2CCC(C(=O)NCCc3csc(-c4cccs4)n3)CC2)cc1`, 1000 s; as for `CCN(CC)c1ccc(-c2noc(CN3CCC(C)CC3)n2)cn1`, 593 s. As for `CNC(=O)NC(=O)COc1cc(=O)n2cccc(C)c2n1`, the figure is 579 s.

Turning to `NS(=O)(=O)c1ccc(NC(=O)Nc2ccc(F)cc2)cc1`, the RP-LC retention time came to 772 s. As for `c1ccc(-c2nc(C3CCNC3)no2)cc1` (stereo not given), the figure is 591 s; as for `O=C(NCCc1ccccc1)NC(c1ccccc1)c1nnc(-c2ccccc2)o1` (stereo not given), 876 s. As for `Cn1cc(CN2CCC(C(=O)NCCCc3ccccc3)CC2)c2cc(Cl)ccc21`, the figure is 753 s.

Take `Cc1cc(Cl)ccc1S(=O)(=O)N1CC(Cc2nncn2C2CCCC2)C1`: the RP-LC retention time turned out to be 808 s. For `COc1cccc(S(=O)(=O)N2CCC(c3noc(-c4cnccn4)n3)C2)c1` (stereo not given), the RP-LC retention time worked out at 788 s. Consider `O=C(Nc1ccc2c(c1)OCO2)N1CCN(Cc2ccccc2)c2ncccc21`, for which the RP-LC retention time amounted to 732 s. As for `CC(C)(Oc1ccc(Cl)cc1)C(=O)NCCN1CCN(C(=O)c2cccs2)CC1`, the figure is 592 s; as for `Cc1ccc2[nH]cc(CCN3CC(C(=O)NCc4ccc5c(c4)OCO5)CC3=O)c2c1` (stereo not given), 770 s.

Turning to `CC(=O)c1cccc(NC2=NS(=O)(=O)c3ccccc32)c1`, the RP-LC retention time amounted to 744 s. Compound `CCOC(=O)C1CCN(C(=O)Cn2c(N3CCOCC3)nc(C)cc2=O)CC1` showed an RP-LC retention time of 620 s. The figure for `Cc1ccc2nc(-c3cccc(S(=O)(=O)N4CCOCC4)c3)cn2c1` is 605 s; for `COCCn1c(SCc2nc(-c3ccc(OC)cc3)no2)nc2cc3c(cc2c1=O)OCO3` it is 1020 s.

Compound `CC(C)c1nc2cccnc2n1CCN1CCN(C(=O)Nc2ccc(F)cc2F)CC1` gave an RP-LC retention time of 589 s. As for `Cc1cc(C)n2c(Nc3ccc(Cl)cc3)c(-c3ccc(Cl)cc3)nc2n1`, the figure is 886 s; as for `CN1C(=O)[C@H]2CN(Cc3ccc(C#N)cc3)C[C@H]2C1=O`, 574 s. As to `CCCCC(=O)N1C[C@H](c2nc(-c3ccccc3)no2)[C@@H](C)C1`, the RP-LC retention time stood at 971 s. As for `CCS(=O)(=O)c1ccc2c(c1)N(Cc1nc(-c3ccc(C)c(C)c3)no1)C(=O)CO2`, the figure is 1000 s. As for `CCN(CC)S(=O)(=O)c1ccc2c(c1)N(CC(=O)N1CCN(C)CC1)C(=O)C1CCCCN21` (stereo not given), the figure is 658 s; as for `O=C(Cc1ccccc1F)NC(c1ccccc1)c1nnc(N2CCCC2)o1` (stereo not given), 784 s. The figure for `Cc1nc(-c2csc(S(=O)(=O)N3CCC(C(=O)NC4CCCCCCC4)CC3)c2)no1` is 995 s. Compound `COc1ccc(-c2cc(-c3ccccc3)nc3c2CC(=O)Nc2ccccc2-3)cc1OC` had an RP-LC retention time of 1100 s. As for `COCCN1C(=O)c2ccccc2C(C(=O)Nc2cc(C)ccn2)C12CCCCC2` (stereo not given), the figure is 745 s. The figure for `CCOc1cc2c(cc1OCC)C1C(C(=O)NCCCOC)c3ccccc3C(=O)N1CC2` (stereo not given) is 744 s; for `COc1ccccc1NC(=O)N1CCCC(C)(C(=O)NCc2ccc(C)cc2)C1` (stereo not given) it is 898 s.

Regarding `CCCOc1ccc(C2C(C(=O)N3CCOCC3)=C(C)NC3=C2C(=O)CCC3)cc1OC` (stereo not given), the RP-LC retention time is 964 s.

`CC1(C)CC(=O)c2cn(-c3ccc(Cl)cc3)c(=O)c(C(=O)Nc3cccnc3)c2C1` yielded an RP-LC retention time of 763 s.

As for `COc1ccc(CN2C=C(C(=O)OCc3noc(C4CCCCC4)n3)C(C)=NS2(=O)=O)cc1`, the RP-LC retention time is 1150 s. The compound `Cc1nc(Nc2ccccn2)sc1C(=O)N1CCSCC1` registered an RP-LC retention time of 703 s. The compound `O=C(Nc1c(F)cccc1F)N1CCc2[nH]cnc2C1c1ccccc1` (stereo not given) showed an RP-LC retention time of 608 s. As for `COc1ccc(N2CCN(C(=O)C3(CCO)CC34CCOCC4)CC2)cc1` (stereo not given), the figure is 628 s.
